From ChEMBL document CHEMBL2029347, “Identification of blapsins A and B as potent small-molecule 14-3-3 inhibitors from the insect Blaps japanensis” (Bioorg Med Chem Lett, 2012)

Columns and labels:
14-3-3 protein gamma [1] = biological target: T1, 14-3-3 protein gamma (Homo sapiens, UniProt P61981); test: Inhibition of recombinant GST-tagged 14-3-3gamma interaction with PRAS40 in Cos7 cell lysate by ELISA; assay type: cell-free
T1 sequence (P61981 whole entry): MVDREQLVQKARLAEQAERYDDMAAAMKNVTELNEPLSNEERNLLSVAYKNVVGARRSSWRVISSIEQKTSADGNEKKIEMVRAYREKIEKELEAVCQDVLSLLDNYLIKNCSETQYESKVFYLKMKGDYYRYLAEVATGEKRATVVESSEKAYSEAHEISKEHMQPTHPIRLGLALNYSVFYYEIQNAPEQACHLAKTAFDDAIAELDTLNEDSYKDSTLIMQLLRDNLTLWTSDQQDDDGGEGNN

14-3-3 protein gamma [2] = biological target: T1, 14-3-3 protein gamma; test: Inhibition of recombinant GST-tagged 14-3-3gamma interaction with TMR-pS259-Raf peptide after 30 mins by fluorescence polarization assay

| IC50 (14-3-3 protein gamma [1]) [µM] | IC50 (14-3-3 protein gamma [2]) [µM] | Structure (SMILES) |
| --- | --- | --- |
| 10 | 2.5 | Oc1ccc(C2OCCc3cc(O)c(O)cc32)cc1O (racemic) [BLAPSIN B] |
| 9.2 | 2 | O=C(Cc1ccc(O)c(O)c1)OCCc1ccc(O)c(O)c1 [BLAPSIN A] |
